Results as given in ChEMBL document CHEMBL4828768, “Talaromynoids A-I, Highly Oxygenated Meroterpenoids from the Marine-Derived Fungus Talaromyces purpureogenus SCSIO 41517 and Their Lipid Accumulation Inhibitory Activities” (J Nat Prod, 2021).
Active and inactive are the calls of the source. The rule behind the calls is not given here.

Biological target: T1, Tyrosine-protein phosphatase non-receptor type 1 (Homo sapiens) (UniProt P18031)
T1 sequence (whole entry): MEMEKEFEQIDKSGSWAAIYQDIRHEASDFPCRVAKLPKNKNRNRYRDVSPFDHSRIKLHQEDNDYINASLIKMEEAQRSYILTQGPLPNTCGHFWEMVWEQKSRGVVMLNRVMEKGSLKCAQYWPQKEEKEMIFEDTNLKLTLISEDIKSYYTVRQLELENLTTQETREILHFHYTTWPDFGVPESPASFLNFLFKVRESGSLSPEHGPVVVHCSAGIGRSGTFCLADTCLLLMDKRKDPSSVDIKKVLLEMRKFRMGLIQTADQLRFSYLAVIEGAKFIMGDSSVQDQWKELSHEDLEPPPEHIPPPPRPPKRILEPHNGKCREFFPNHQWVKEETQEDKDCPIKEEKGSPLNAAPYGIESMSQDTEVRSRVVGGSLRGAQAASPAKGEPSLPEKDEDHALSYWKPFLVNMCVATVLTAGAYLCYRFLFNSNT
Test: Inhibition of human recombinant PTP1B expressed in Escherichia coli assessed as inhibition of phosphatase activity by measuring p-nitrophenyl phosphate at 6.7 microg/ml measured after 60 mins
Conditions: dose 6.7 µg/ml

Structure (SMILES) | inhibition [%]
COC(=O)CC1=C(C)[C@H]2C[C@]3(C)C(=O)O[C@@H]4O[C@H](C)[C@]5(O)O[C@@H]([C@H]6O[C@@]16C(C)(C)O)[C@@]2(C)[C@@]51C(=O)O[C@@]413 | < 60
COC(=O)CC1=C(C)[C@@H]2C[C@@]3(C)C(=O)O[C@H]4O[C@@H](C)[C@@]5(O)O[C@@H]([C@@H]6O[C@]16C(C)(C)O)[C@]2(C)[C@@]5(C(=O)OC)[C@]43O | < 60
COC(=O)[C@]12[C@@H]3[C@H]4OC(=O)[C@]3(C)CC3=C(C)C5=C(C[C@H](O[C@]1(O)[C@H](C)O4)[C@@]32C)C(C)(C)OC(=O)C5 | < 60
COC(=O)[C@]12[C@@H]3[C@@H](O)O[C@@H](C)[C@@]14OC(=O)[C@]3(C)C[C@H]1C(C)=C3CC(=O)OC(C)(C)[C@@]35O[C@H]5[C@H](O4)[C@@]12C | < 60
COC(=O)[C@@]12[C@@]3(C)[C@@H]4C=C5C(=CC(=O)OC5(C)C)[C@@](C)(O)[C@@H]3C[C@@]3(C)C(=O)O[C@@H](O[C@@H](C)[C@@]1(O)O4)[C@@]23O | < 60
COC(=O)[C@]12C(=O)[C@@](C)(O)C(=O)[C@](C)(C[C@H]3C(C)=C4CC(=O)OC(C)(C)C4=CC[C@@]31C)[C@]21CO1 | < 60

Biological target: T2, Receptor-type tyrosine-protein phosphatase C (Homo sapiens) (UniProt P08575)
T2 sequence (whole entry): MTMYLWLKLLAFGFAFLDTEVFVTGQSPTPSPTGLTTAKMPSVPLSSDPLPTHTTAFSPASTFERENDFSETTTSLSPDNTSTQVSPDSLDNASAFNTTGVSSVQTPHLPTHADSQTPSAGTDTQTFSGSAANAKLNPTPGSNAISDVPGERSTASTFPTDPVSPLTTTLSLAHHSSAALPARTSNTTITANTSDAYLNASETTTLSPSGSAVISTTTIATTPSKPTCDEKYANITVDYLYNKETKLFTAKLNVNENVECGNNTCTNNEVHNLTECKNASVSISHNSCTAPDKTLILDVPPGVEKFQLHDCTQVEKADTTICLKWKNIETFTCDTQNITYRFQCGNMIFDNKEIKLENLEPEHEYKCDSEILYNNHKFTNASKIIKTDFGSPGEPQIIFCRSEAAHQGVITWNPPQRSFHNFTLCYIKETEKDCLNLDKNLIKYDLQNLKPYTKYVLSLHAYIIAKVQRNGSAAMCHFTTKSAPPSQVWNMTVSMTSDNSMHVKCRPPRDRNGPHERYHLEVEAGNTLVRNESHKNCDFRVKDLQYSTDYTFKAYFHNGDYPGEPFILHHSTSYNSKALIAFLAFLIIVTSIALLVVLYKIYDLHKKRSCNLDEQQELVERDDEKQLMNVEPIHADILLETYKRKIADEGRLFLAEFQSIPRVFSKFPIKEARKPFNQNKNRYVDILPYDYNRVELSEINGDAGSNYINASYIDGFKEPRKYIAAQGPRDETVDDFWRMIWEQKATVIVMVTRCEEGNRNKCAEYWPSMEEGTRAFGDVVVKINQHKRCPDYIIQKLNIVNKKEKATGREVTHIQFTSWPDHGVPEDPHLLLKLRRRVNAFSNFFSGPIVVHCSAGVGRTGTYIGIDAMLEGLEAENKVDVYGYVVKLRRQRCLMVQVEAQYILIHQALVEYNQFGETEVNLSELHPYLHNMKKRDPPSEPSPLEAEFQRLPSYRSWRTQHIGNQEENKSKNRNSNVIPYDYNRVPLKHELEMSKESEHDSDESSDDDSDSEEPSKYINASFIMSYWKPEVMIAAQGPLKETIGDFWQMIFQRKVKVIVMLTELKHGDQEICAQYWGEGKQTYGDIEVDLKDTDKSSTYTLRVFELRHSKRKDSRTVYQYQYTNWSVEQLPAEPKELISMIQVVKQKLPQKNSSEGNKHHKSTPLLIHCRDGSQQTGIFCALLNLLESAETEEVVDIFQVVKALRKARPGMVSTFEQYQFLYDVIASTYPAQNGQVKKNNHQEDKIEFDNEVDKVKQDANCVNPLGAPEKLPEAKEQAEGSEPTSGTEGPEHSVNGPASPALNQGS
Test: Inhibition of human recombinant CD45 expressed in Escherichia coli assessed as inhibition of phosphatase activity by measuring p-nitrophenyl phosphate at 6.7 microg/ml measured after 60 mins
Conditions: dose 6.7 µg/ml

Structure (SMILES) | inhibition [%]
COC(=O)CC1=C(C)[C@H]2C[C@]3(C)C(=O)O[C@@H]4O[C@H](C)[C@]5(O)O[C@@H]([C@H]6O[C@@]16C(C)(C)O)[C@@]2(C)[C@@]51C(=O)O[C@@]413 | < 60
COC(=O)CC1=C(C)[C@@H]2C[C@@]3(C)C(=O)O[C@H]4O[C@@H](C)[C@@]5(O)O[C@@H]([C@@H]6O[C@]16C(C)(C)O)[C@]2(C)[C@@]5(C(=O)OC)[C@]43O | < 60
COC(=O)[C@]12[C@@H]3[C@H]4OC(=O)[C@]3(C)CC3=C(C)C5=C(C[C@H](O[C@]1(O)[C@H](C)O4)[C@@]32C)C(C)(C)OC(=O)C5 | < 60
COC(=O)[C@]12[C@@H]3[C@@H](O)O[C@@H](C)[C@@]14OC(=O)[C@]3(C)C[C@H]1C(C)=C3CC(=O)OC(C)(C)[C@@]35O[C@H]5[C@H](O4)[C@@]12C | < 60
COC(=O)[C@@]12[C@@]3(C)[C@@H]4C=C5C(=CC(=O)OC5(C)C)[C@@](C)(O)[C@@H]3C[C@@]3(C)C(=O)O[C@@H](O[C@@H](C)[C@@]1(O)O4)[C@@]23O | < 60
COC(=O)[C@]12C(=O)[C@@](C)(O)C(=O)[C@](C)(C[C@H]3C(C)=C4CC(=O)OC(C)(C)C4=CC[C@@]31C)[C@]21CO1 | < 60

Biological target: Tyrosine-protein phosphatase non-receptor type 6 (Homo sapiens) (UniProt P29350)
Sequence (P29350 whole entry): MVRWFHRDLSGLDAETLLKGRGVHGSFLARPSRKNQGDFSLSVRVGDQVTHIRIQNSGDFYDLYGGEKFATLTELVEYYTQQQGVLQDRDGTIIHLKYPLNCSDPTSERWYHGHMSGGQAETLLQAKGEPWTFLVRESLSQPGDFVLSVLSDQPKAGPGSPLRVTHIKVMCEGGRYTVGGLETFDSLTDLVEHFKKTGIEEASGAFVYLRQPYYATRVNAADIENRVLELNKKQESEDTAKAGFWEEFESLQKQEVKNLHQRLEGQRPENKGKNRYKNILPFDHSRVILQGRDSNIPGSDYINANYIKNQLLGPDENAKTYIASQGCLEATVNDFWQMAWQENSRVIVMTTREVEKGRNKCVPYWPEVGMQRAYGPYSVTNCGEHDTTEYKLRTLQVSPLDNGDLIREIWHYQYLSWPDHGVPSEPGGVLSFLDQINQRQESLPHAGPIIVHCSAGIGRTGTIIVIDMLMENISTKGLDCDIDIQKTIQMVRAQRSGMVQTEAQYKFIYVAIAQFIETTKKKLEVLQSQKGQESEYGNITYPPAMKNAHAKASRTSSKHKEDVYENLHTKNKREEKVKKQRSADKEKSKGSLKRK
Test: Inhibition of human recombinant SHP1 expressed in Escherichia coli assessed as inhibition of phosphatase activity by measuring p-nitrophenyl phosphate at 6.7 microg/ml measured after 60 mins
Conditions: dose 6.7 µg/ml

Structure (SMILES) | inhibition [%]
COC(=O)CC1=C(C)[C@H]2C[C@]3(C)C(=O)O[C@@H]4O[C@H](C)[C@]5(O)O[C@@H]([C@H]6O[C@@]16C(C)(C)O)[C@@]2(C)[C@@]51C(=O)O[C@@]413 | < 60
COC(=O)CC1=C(C)[C@@H]2C[C@@]3(C)C(=O)O[C@H]4O[C@@H](C)[C@@]5(O)O[C@@H]([C@@H]6O[C@]16C(C)(C)O)[C@]2(C)[C@@]5(C(=O)OC)[C@]43O | < 60
COC(=O)[C@]12[C@@H]3[C@H]4OC(=O)[C@]3(C)CC3=C(C)C5=C(C[C@H](O[C@]1(O)[C@H](C)O4)[C@@]32C)C(C)(C)OC(=O)C5 | < 60
COC(=O)[C@]12[C@@H]3[C@@H](O)O[C@@H](C)[C@@]14OC(=O)[C@]3(C)C[C@H]1C(C)=C3CC(=O)OC(C)(C)[C@@]35O[C@H]5[C@H](O4)[C@@]12C | < 60
COC(=O)[C@@]12[C@@]3(C)[C@@H]4C=C5C(=CC(=O)OC5(C)C)[C@@](C)(O)[C@@H]3C[C@@]3(C)C(=O)O[C@@H](O[C@@H](C)[C@@]1(O)O4)[C@@]23O | < 60
COC(=O)[C@]12C(=O)[C@@](C)(O)C(=O)[C@](C)(C[C@H]3C(C)=C4CC(=O)OC(C)(C)C4=CC[C@@]31C)[C@]21CO1 | < 60

Biological target: T3, Tyrosine-protein phosphatase non-receptor type 2 (Homo sapiens) (UniProt P17706)
T3 sequence (whole entry): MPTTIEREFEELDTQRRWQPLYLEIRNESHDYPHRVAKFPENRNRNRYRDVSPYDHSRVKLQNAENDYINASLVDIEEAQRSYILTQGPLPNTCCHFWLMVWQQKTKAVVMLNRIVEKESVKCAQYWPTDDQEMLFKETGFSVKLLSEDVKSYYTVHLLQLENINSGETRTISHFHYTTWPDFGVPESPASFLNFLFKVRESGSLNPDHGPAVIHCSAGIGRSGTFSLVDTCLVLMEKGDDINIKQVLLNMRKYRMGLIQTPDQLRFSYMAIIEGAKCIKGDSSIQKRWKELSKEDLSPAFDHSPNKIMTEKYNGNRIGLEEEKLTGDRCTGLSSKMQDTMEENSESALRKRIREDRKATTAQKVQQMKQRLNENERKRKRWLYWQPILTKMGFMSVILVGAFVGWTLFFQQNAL
Test: Inhibition of human recombinant TCPTP expressed in Escherichia coli assessed as inhibition of phosphatase activity by measuring p-nitrophenyl phosphate at 6.7 microg/ml measured after 60 mins
Conditions: dose 6.7 µg/ml

Structure (SMILES) | inhibition [%]
COC(=O)CC1=C(C)[C@H]2C[C@]3(C)C(=O)O[C@@H]4O[C@H](C)[C@]5(O)O[C@@H]([C@H]6O[C@@]16C(C)(C)O)[C@@]2(C)[C@@]51C(=O)O[C@@]413 | < 60
COC(=O)CC1=C(C)[C@@H]2C[C@@]3(C)C(=O)O[C@H]4O[C@@H](C)[C@@]5(O)O[C@@H]([C@@H]6O[C@]16C(C)(C)O)[C@]2(C)[C@@]5(C(=O)OC)[C@]43O | < 60
COC(=O)[C@]12[C@@H]3[C@H]4OC(=O)[C@]3(C)CC3=C(C)C5=C(C[C@H](O[C@]1(O)[C@H](C)O4)[C@@]32C)C(C)(C)OC(=O)C5 | < 60
COC(=O)[C@]12[C@@H]3[C@@H](O)O[C@@H](C)[C@@]14OC(=O)[C@]3(C)C[C@H]1C(C)=C3CC(=O)OC(C)(C)[C@@]35O[C@H]5[C@H](O4)[C@@]12C | < 60
COC(=O)[C@@]12[C@@]3(C)[C@@H]4C=C5C(=CC(=O)OC5(C)C)[C@@](C)(O)[C@@H]3C[C@@]3(C)C(=O)O[C@@H](O[C@@H](C)[C@@]1(O)O4)[C@@]23O | < 60
COC(=O)[C@]12C(=O)[C@@](C)(O)C(=O)[C@](C)(C[C@H]3C(C)=C4CC(=O)OC(C)(C)C4=CC[C@@]31C)[C@]21CO1 | < 60

Biological target: T4, M-phase inducer phosphatase 2 (Homo sapiens) (UniProt P30305)
T4 sequence (whole entry): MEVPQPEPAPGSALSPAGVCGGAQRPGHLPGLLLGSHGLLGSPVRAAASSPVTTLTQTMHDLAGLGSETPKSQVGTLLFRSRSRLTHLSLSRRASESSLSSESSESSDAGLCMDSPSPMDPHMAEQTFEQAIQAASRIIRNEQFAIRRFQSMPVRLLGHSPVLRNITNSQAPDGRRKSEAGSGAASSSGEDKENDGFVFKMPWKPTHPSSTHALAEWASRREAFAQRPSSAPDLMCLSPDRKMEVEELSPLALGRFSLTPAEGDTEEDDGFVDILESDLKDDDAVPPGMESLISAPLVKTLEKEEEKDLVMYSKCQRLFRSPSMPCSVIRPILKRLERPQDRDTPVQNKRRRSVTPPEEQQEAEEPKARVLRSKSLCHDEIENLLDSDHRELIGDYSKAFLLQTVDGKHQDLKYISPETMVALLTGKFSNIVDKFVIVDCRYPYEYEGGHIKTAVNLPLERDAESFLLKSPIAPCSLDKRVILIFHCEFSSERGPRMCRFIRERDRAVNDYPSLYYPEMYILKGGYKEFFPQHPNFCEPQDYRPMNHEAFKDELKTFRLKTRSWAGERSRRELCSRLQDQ
Test: Inhibition of human recombinant CDC25B expressed in Escherichia coli assessed as inhibition of phosphatase activity by measuring p-nitrophenyl phosphate at 6.7 microg/ml measured after 60 mins
Conditions: dose 6.7 µg/ml

Structure (SMILES) | inhibition
COC(=O)CC1=C(C)[C@H]2C[C@]3(C)C(=O)O[C@@H]4O[C@H](C)[C@]5(O)O[C@@H]([C@H]6O[C@@]16C(C)(C)O)[C@@]2(C)[C@@]51C(=O)O[C@@]413 | < 60%
COC(=O)CC1=C(C)[C@@H]2C[C@@]3(C)C(=O)O[C@H]4O[C@@H](C)[C@@]5(O)O[C@@H]([C@@H]6O[C@]16C(C)(C)O)[C@]2(C)[C@@]5(C(=O)OC)[C@]43O | < 60%
COC(=O)[C@]12[C@@H]3[C@H]4OC(=O)[C@]3(C)CC3=C(C)C5=C(C[C@H](O[C@]1(O)[C@H](C)O4)[C@@]32C)C(C)(C)OC(=O)C5 | < 60%
COC(=O)[C@]12[C@@H]3[C@@H](O)O[C@@H](C)[C@@]14OC(=O)[C@]3(C)C[C@H]1C(C)=C3CC(=O)OC(C)(C)[C@@]35O[C@H]5[C@H](O4)[C@@]12C | < 60%
COC(=O)[C@@]12[C@@]3(C)[C@@H]4C=C5C(=CC(=O)OC5(C)C)[C@@](C)(O)[C@@H]3C[C@@]3(C)C(=O)O[C@@H](O[C@@H](C)[C@@]1(O)O4)[C@@]23O | Active
COC(=O)[C@]12C(=O)[C@@](C)(O)C(=O)[C@](C)(C[C@H]3C(C)=C4CC(=O)OC(C)(C)C4=CC[C@@]31C)[C@]21CO1 | < 60%
